PubChem BioAssay AID179 (DTP/NCI, 2004)
pEC50, pIC50: −log10 of the molar value. “And” between values parts separate entries of the source, which are not always exact repeats. Equal entries are not always repeated. The source made the active and inactive calls.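 How the source made its calls: active means compounds giving half or more protection of infected cells from virus-caused growth loss, again on retest; inactive means the rest.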

System: CEM cells HIV-1 protection, formazan growth assay
Assay: NCI AIDS Antiviral Assay
Conditions: for pIC50: measured here: growth of uninfected CEM cells
Summary of the method: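 Soluble formazan readout of cell growth; CEM cells ± HIV-1; 5 drug concs. ≥50% protection → retest; ≥50% again = moderately active; reproducible 100% = confirmed active.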

Structure (SMILES)	outcome	pEC50	pIC50
Cn1cccc1/C=C/c1cc(Br)c(/C=C/c2cccn2C)cc1Br	inactive	–	–
C=CCn1c(N)c(C#N)c(C#N)c1CCC	–	< 3.70	< 3.70
CCOC(=O)/C=C/[C@@H](CC)O[Si](C(C)C)(C(C)C)C(C)C	–	< 3.70	< 3.70
Nc1ccc(C(=O)Oc2ccccc2)c(O)c1	–	< 3.70	< 3.70
COC1C=C(NCC2(CO)CCC2)NC(N)=N1 (stereo unspecified)	–	< 3.70	< 3.70
C=C(NC(=O)C(=C)NC(=O)c1csc(C2=NC3c4csc(n4)C4NC(=O)c5csc(n5)C(C(C)(O)C(C)O)NC(=O)C5CSC(=N5)/C(=C/C)NC(=O)C(C(C)O)NC(=O)c5csc(n5)C3(CC2)NC(=O)C(C)NC(=O)C(=C)NC(=O)C(C)NC(=O)C(C(C)CC)NC2C=Cc3c(C(C)O)cc(nc3C2O)C(=O)OC4C)n1)C(N)=O (stereo unspecified)	–	5.05	4.36
Cc1cnc2c(c1)CCCC2C(N)=S (stereo unspecified)	inactive	–	–
CC(C)C1=CC23CCC4C(C)(C(=O)O)CCCC4(C)C2CC1C1C(=O)N(CCCCCCN2C(=O)C4C5CC6C7(C)CCCC(C)(C(=O)O)C7CCC6(C=C5C(C)C)C4C2=O)C(=O)C13 (stereo unspecified)	–	< 3.57	5.13
[O-]/[N+](=C\c1ccccc1)[C@H](COCc1ccccc1)c1ccccc1	–	< 4.11	< 4.11
Cc1nc(C)c(N2CCN(C(=O)O)CC2)c(=O)[nH]1	–	< 3.70	< 3.70
O=C(O)Cn1[se]c2ccccc2c1=O	–	4.33	3.92
O=C1/C(=C/c2ccccc2)CCc2ccccc21	–	< 3.70	4.94
O=c1c(F)cn(Cc2c(Cl)cccc2Cl)c(=O)n1Cc1c(Cl)cccc1Cl	–	< 3.70	4.32
COc1ccc(C(=O)Cn2c(C(C)=O)nc3ccccc32)cc1	–	< 3.70	5.61
COc1ccc(-c2nc3sc(-c4ccc(OC)c(OC)c4)nc3s2)cc1OC	–	< 3.70	< 3.70
CC(=O)O[C@H]1CC[C@@]2(C)C(=CC[C@@H]3C2CC[C@@]2(C)C3CC[C@@H]2c2nc(C)cs2)C1 (stereo partly specified)	–	< 4.22	< 4.22
O=C(O)c1ccc(CS(=O)(=O)c2ccccc2C(=O)O)cc1	–	< 3.11	< 3.11
NC(=S)C1=C(N)Oc2c(c(=O)oc3ccccc23)C1c1ccc(Br)cc1 (stereo unspecified)	–	< 3.70	3.90
COC(=O)C1=C(O)c2ccc(Cl)cc2S(=O)(=O)N1C	–	< 3.70	4.06
COC(=O)c1ccc2c(O)c(O)ccc2c1	–	< 3.70	5.50

Structure (SMILES)	outcome	pEC50	pIC50
OC1(c2ccc(-c3ccccc3)cc2)c2ccccc2C2=NCCN21 (stereo unspecified)	–	< 3.70	< 4.00
C=CCOC(=O)C1C2OC3(C(C(=O)OC)=C2C(=O)OC)c2ccccc2CCC13 (stereo unspecified)	–	< 3.70	5.94
Cc1nc(-[n+]2nc(-c3ccncc3)nn2-c2ccccc2)sc1C	–	< 3.70	4.77
O=Nc1c(N=O)c(N=O)c(N=O)c(N=O)c1N=O	–	< 4.70	5.63
Cc1cc(S(=O)(=O)Nc2nnc3cnc4ccccc4n23)c(S)cc1Cl	–	4.05	3.47
CC1=CC(=O)N2[C@H](OC[C@@H]2C(C)C)O1	–	< 2.90	< 2.90
Cc1nc(C)c(N2CCN(C(=O)NC(CCC(=O)O)C(=O)O)CC2)c(=O)[nH]1 (stereo unspecified)	–	< 3.70	< 3.70
C=C1C(=O)OC2CC(C)C3C=CC(=O)C3CC12 (stereo unspecified)	–	< 3.70	6.27
COC(=O)Cc1c(-c2[nH]c3ccccc3c2CC(=O)OC)[nH]c2ccccc12	inactive	–	–
CO/S(=N/S(=O)(=O)c1ccccc1)c1ccccc1[N+](=O)[O-] (stereo unspecified)	–	< 3.42	3.99
COc1ccc([C@H]2c3cc4c(cc3OC(O)(CO)[C@H]2C(=O)O)OCO4)c(OC)c1 (stereo partly specified) (tested in a mixture with another compound)	inactive	–	–
Cc1nc2c(nc1C)C(=O)c1ccccc1C2=O	–	< 3.70	5.34
O=C(NCCCCCN1CCC2(CCCCC2)CC1)C(C1CCCCC1)C1CCCCC1	–	< 4.00	5.03
CCOC(=O)n1ccc2c(C(=O)OC)c(C(=O)OC)cc(/C(=C/C(=O)OC)C(=O)OC)c21	–	< 3.82	3.99
CSc1c(C#N)c(O)n(-c2ccc(Cl)cc2)c(=O)c1C#N	–	< 3.70	4.48
O=C(O)c1ccccc1-c1c2ccc(=O)c(O)c-2oc2c(O)c(O)ccc12	–	< 4.60	5.06
O=C(/C=C/c1c(O)ccc2ccccc12)c1ccccc1	–	< 3.74	< 4.00
O=C(CCCN1CCC2(CC1)OC(=O)N(c1ccccc1)C2=O)c1ccccc1	–	< 3.70	< 3.70
O=C1c2c(O)ccc(O)c2C(=O)c2c(NCCNCCO)ccc(NCCNCCO)c21	–	< 6.15	8.73 and 8.60
Cc1cc(N(CCC#N)CCC#N)ccc1/C=C1N=C(/C=C/c2ccccc2)OC(=O)N\1	–	< 5.47	< 5.47
